Test results: ChEMBL document CHEMBL1201862, “PubChem BioAssay data set” (2004)
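Five concentrations, 48 hours, 96-well plates. The concentration for 50% growth inhibition is given as GI50.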 Active and inactive are the calls of the source. Cut-off read from the data, not from the text of the source: active = GI50 up to about 1.1 µM and inactive = higher.

How the values were obtained:
Test in all cases: NCI anticancer screen, dose series, 48 h
[1] = system: 786-0
[2] = system: A498
[3] = system: HCC 2998
[4] = system: HCT-15
[5] = system: HOP-62
[6] = system: HT-29
[7] = system: K562
[8] = system: LOX IMVI
[9] = system: Malme-3M
[10] = system: OVCAR-3
[11] = system: OVCAR-4
[12] = system: RPMI-8226
[13] = system: SF-268
[14] = system: SF-295
[15] = system: SF-539
[16] = system: SK-MEL-28
[17] = system: SR
[18] = system: UACC-257
[19] = system: UO-31
[20] = system: SNB-78

## O=C(OCC1CC(C2(O)CCCCC2)C(=O)O1)c1ccccc1 (stereo unspecified)
[1]
  GI50: > 100 µM (inactive)
[2]
  GI50: > 100 µM (inactive)
[3]
  GI50: > 100 µM (inactive)
[4]
  GI50: > 100 µM
[5]
  GI50: > 100 µM (inactive)
[6]
  GI50: > 100 µM (inactive)
[7]
  GI50: > 100 µM (inactive)
[8]
  GI50: > 100 µM (inactive)
[9]
  GI50: > 100 µM (inactive)
[10]
  GI50: > 100 µM (inactive)
[11]
  GI50: > 100 µM (inactive)
[12]
  GI50: > 100 µM (inactive)
[13]
  GI50: > 100 µM (inactive)
[14]
  GI50: > 100 µM (inactive)
[15]
  GI50: > 100 µM (inactive)
[16]
  GI50: > 100 µM (inactive)
[17]
  GI50: > 100 µM (inactive)
[18]
  GI50: > 100 µM (inactive)
[19]
  GI50: 55.8 µM (inactive)

## Clc1nc(Cl)nc(NC23CC4CC(CC(C4)C2)C3)n1
[1]
  GI50: 17.3 µM (inactive)
[2]
  GI50: > 43.4 µM (inactive)
[3]
  GI50: 20.3 µM (inactive)
[4]
  GI50: 15.6 µM
[5]
  GI50: 17.7 µM (inactive)
[6]
  GI50: 17.9 µM (inactive)
[7]
  GI50: 13.7 µM (inactive)
[8]
  GI50: 13.4 µM (inactive)
[9]
  GI50: 16.2 µM (inactive)
[10]
  GI50: 18.8 µM (inactive)
[11]
  GI50: 17.7 µM (inactive)
[12]
  GI50: 12 µM (inactive)
[13]
  GI50: 19.2 µM (inactive)
[14]
  GI50: 19.7 µM (inactive)
[15]
  GI50: 17.5 µM (inactive)
[16]
  GI50: 19.6 µM (inactive)
[17]
  GI50: 20.1 µM (inactive)
[18]
  GI50: 17.3 µM (inactive)
[19]
  GI50: 9.33 µM (inactive)

## COc1cc(OC)c(/C=N\Nc2nc3ccccc3c(=O)n2-c2ccccc2)c(OC)c1
[1]
  GI50: 17.7 µM (inactive)
[2]
  GI50: 11.8 µM (inactive)
[3]
  GI50: 39.6 µM (inactive)
[4]
  GI50: 37.4 µM
[5]
  GI50: 19.4 µM (inactive)
[6]
  GI50: 24.5 µM (inactive)
[7]
  GI50: 33 µM (inactive)
[8]
  GI50: 23.2 µM (inactive)
[9]
  GI50: 28.1 µM (inactive)
[10]
  GI50: 23.6 µM (inactive)
[11]
  GI50: 28.8 µM (inactive)
[12]
  GI50: 26.4 µM (inactive)
[13]
  GI50: 34.9 µM (inactive)
[14]
  GI50: 25.6 µM (inactive)
[15]
  GI50: 18 µM (inactive)
[16]
  GI50: 27.4 µM (inactive)
[17]
  GI50: 36.6 µM (inactive)
[18]
  GI50: 27.5 µM (inactive)
[19]
  GI50: > 48.8 µM (inactive)

## COc1ccc(/C=C(/c2ccccc2)c2c(C)cc(C)c(/C(=C\c3ccc(OC)cc3)c3ccccc3)c2/N=N/c2cc(C)cc(C)c2)cc1
[1]
  GI50: 13.7 µM (inactive)
[2]
  GI50: 32.7 µM (inactive)
[3]
  GI50: 8.34 µM (inactive)
[4]
  GI50: > 66.1 µM
[5]
  GI50: 20.9 µM (inactive)
[6]
  GI50: 9.71 µM (inactive)
[7]
  GI50: 11.7 µM (inactive)
[8]
  GI50: 24.2 µM (inactive)
[9]
  GI50: 17.9 µM (inactive)
[10]
  GI50: 4.1 µM (inactive)
[11]
  GI50: 20.1 µM (inactive)
[12]
  GI50: 6.07 µM (inactive)
[13]
  GI50: 39.9 µM (inactive)
[14]
  GI50: 24.7 µM (inactive)
[15]
  GI50: 42.1 µM (inactive)
[16]
  GI50: > 100 µM (inactive)
[17]
  GI50: 63.5 µM (inactive)
[18]
  GI50: 7.69 µM (inactive)
[19]
  GI50: > 67.5 µM (inactive)

## Cc1ccc(NC(=O)OCC(COc2ccc(Cl)cc2Cl)OC(=O)Nc2ccc(C)cc2)cc1 (stereo unspecified)
[1]
  GI50: 64.6 µM (inactive)
[2]
  GI50: > 100 µM (inactive)
[3]
  GI50: > 100 µM (inactive)
[4]
  GI50: > 100 µM
[5]
  GI50: > 100 µM (inactive)
[6]
  GI50: > 100 µM (inactive)
[9]
  GI50: > 100 µM (inactive)
[10]
  GI50: 80.2 µM (inactive)
[11]
  GI50: 33.2 µM (inactive)
[12]
  GI50: > 100 µM (inactive)
[13]
  GI50: > 100 µM (inactive)
[14]
  GI50: > 100 µM (inactive)
[15]
  GI50: 89.5 µM (inactive)
[16]
  GI50: > 100 µM (inactive)
[20]
  GI50: > 100 µM (inactive)
[18]
  GI50: > 100 µM (inactive)
[19]
  GI50: 66.2 µM (inactive)

## N#CC1=C(S)N(C2OC(CO)C(O)C(O)C2O)C(c2ccccc2)=CC1c1ccco1 (stereo unspecified)
[1]
  GI50: 38 µM (inactive)
[2]
  GI50: 71.6 µM (inactive)
[3]
  GI50: 28.4 µM (inactive)
[4]
  GI50: 68.9 µM
[5]
  GI50: 44.6 µM (inactive)
[6]
  GI50: > 100 µM (inactive)
[7]
  GI50: 42.7 µM (inactive)
[8]
  GI50: 23.2 µM (inactive)
[9]
  GI50: 81.7 µM (inactive)
[10]
  GI50: > 100 µM (inactive)
[11]
  GI50: > 100 µM (inactive)
[12]
  GI50: 23.2 µM (inactive)
[13]
  GI50: > 100 µM (inactive)
[14]
  GI50: 24.6 µM (inactive)
[15]
  GI50: 35.2 µM (inactive)
[16]
  GI50: 91.6 µM (inactive)
[17]
  GI50: 36.9 µM (inactive)
[18]
  GI50: 97.1 µM (inactive)
[19]
  GI50: 82.2 µM (inactive)

## C(=N\NC1=NCCN1)/c1cccc2cc3ccncc3nc12
[1]
  GI50: 1.95 µM (inactive)
[2]
  GI50: 11.6 µM (inactive)
[3]
  GI50: 5.71 µM (inactive)
[4]
  GI50: 3.4 µM
[5]
  GI50: 6.22 µM (inactive)
[6]
  GI50: 1.71 µM (inactive)
[7]
  GI50: 1.36 µM (inactive)
[8]
  GI50: 1.73 µM (inactive)
[9]
  GI50: 10.6 µM (inactive)
[10]
  GI50: 4.81 µM (inactive)
[11]
  GI50: 3.33 µM (inactive)
[12]
  GI50: 1.93 µM (inactive)
[13]
  GI50: 3.85 µM (inactive)
[14]
  GI50: 3.04 µM (inactive)
[15]
  GI50: 5.85 µM (inactive)
[16]
  GI50: 10.1 µM (inactive)
[17]
  GI50: 1.08 µM (active)
[18]
  GI50: 9.89 µM (inactive)
[19]
  GI50: 3.21 µM (inactive)
